ChEMBL document CHEMBL3244234, “Alteration of relative affinities toward myocardial and vascular beta adrenoceptors induced by side-chain substitution of aryloxypropanolamines” (J Med Chem, 1978)

What was measured:
[1] = 1-Octanol-phosphate buffer apparent partition coefficient, log P of the compound at pH 7.4; type: physicochemical
Felis catus [2] = assay: In vivo inhibition of beta-1 adrenoceptor in vagotomized cat assessed as inhibition of isoproterenol-induced tachycardia; type: functional, organism-based; details: read-out: pA2 (converted)
Felis catus [3] = assay: (§1) In vivo inhibition of beta-2 adrenoceptor in chloralose-anesthetized vagotomized cat assessed as inhibition of isoproterenol-induced fall in diastolic pressure; type: functional, organism-based; details: read-out: pA2 (converted)
Felis catus [4] = assay: as §1, with “Potency ratio for in vivo inhibition of beta-1 adrenoceptor in vagotomized cat assessed as inhibition of isoproterenol-induced tachycardia to in” for “In”; type: functional
Felis catus [5] = assay: Potency ratio for in vivo inhibition of beta-2 adrenoceptor in chloralose-anesthetized vagotomized cat assessed as inhibition of isoproterenol-induced fall in diastolic pressure to in vivo inhibition of beta-1 adrenoceptor in vagotomized cat assessed as inhibition of isoproterenol-induced tachycardia; type: functional
Cavia porcellus = species on record: Cavia porcellus; assay: Selectivity for guinea pig right atria beta-1 adrenoceptor over guinea pig trachea beta-2 adrenoceptor

Structure (SMILES) | logD [1] | Kb (Felis catus [2]) | Kb (Felis catus [3]) | Ratio (Felis catus [4]) | Ratio (Felis catus [5]) | Selectivity ratio (Cavia porcellus)
COc1ccc(CCNCC(O)COc2ccccc2)cc1OC.Cl (racemic) | 1.7 | 63.1 nM | 692 nM | 10 |  | 
CC(C)N[C@H](C)[C@@H](O)COc1ccccc1.Cl (racemic) | -0.244 | 501 nM | 151 nM | 0.3 | 3 | 
COc1ccc(CCN[C@H](C)[C@@H](O)COc2ccccc2)cc1OC.Cl (racemic) | 1.66 | 219 nM | > 10000 nM | >40 |  | 
CC(C)N[C@@H](C)[C@@H](O)COc1ccccc1.O=C(O)C(=O)O (racemic) | -0.244 | 2190 nM | 631 nM | 0.3 | 3 | 
CC(C)N[C@H](c1ccccc1)[C@@H](O)COc1ccccc1 (racemic) | 2.1 | > 10000 nM | > 10000 nM |  |  | 
Cc1ccc([C@@H](O)[C@H](C)NC(C)C)cc1 (racemic) | 0.149 | > 10000 nM | 3390 nM | <0.3 |  | 
Cc1ccc(OCC(O)CNC(C)C)cc1 (racemic) | 0.423 | 234 nM | 234 nM | 1 |  | 
CC(C)NCC(O)COc1ccccc1 (racemic) | -0.137 | 44.7 nM | 204 nM | 5 |  | 25
CC(=O)Nc1ccc(OCC(O)CNC(C)C)cc1 (racemic) [PRACTOLOL] | -1.05 | 229 nM | 5010 nM | 22 |  | 
